Data: US8785655B2, “Ionic liquid solvents” (Dublin City University, priority 2009, dated 2014)
Structures can show the parent of a compound that is named as a salt. Where two headings read alike, the source gives them in different places.

Experiments:
Assay in all cases: Toxicity of pyridinium CILs, IC50 against bacteria strains
Format in all cases: cell-based
Settings in all cases: read-out: IC50 values
Escherichia Coli = test system: Escherichia Coli
Experimental: (§1) KG 2013 and KG 2015 screened against 5 bacteria strains: Pseudomonas Putida (CP1), Pseudomonas Putida (KT2440), Escherichia Coli, Bacillus Subtilis, and Pseudomonas Fluorescens. KG 1043 screened against 4 strains Pseudomonas Putida (CP1), Pseudomonas Putida (KT2440), Escherichia Coli, and Pseudomonas Fluorescens. All 3 pyridinium ionic liquids have low antimicrobial toxicity (IC50>1 mM).

Pseudomonas Fluorescens = test system: Pseudomonas Fluorescens
Experimental: as §1

Pseudomonas Putida (CP1) = test system: Pseudomonas Putida (CP1)
Experimental: as §1

[1] = test system: Pseudomonas Putida (KT2440)
Experimental: as §1

Bacillus Subtilis = test system: Bacillus Subtilis
Experimental: as §1

Measured: IC50

CCCCOC(=O)C(OC(=O)C[n+]1ccccc1)c1ccc2c(c1)OCO2 (centres unmarked) [KG 1043, RS-[1-(butoxycarbonyl)-1-(3,4-methylenedioxyphenyl)methoxycarbonylmethyl]pyridinium bromide]
> 1000 µM: Escherichia Coli; E. Coli | Pseudomonas Fluorescens; P. Fluorescens | Pseudomonas Putida (CP1); P. Putida (CP1) | [1]; P. Putida (KT2440)

COC(=O)C(c1ccc(OC)c(OC)c1)[n+]1ccccc1 (centres unmarked) [KG 2013, RS-2-(3,4-dimethoxyphenyl)-2-(pyridinium) methyl acetate, chloride salt]
> 1000 µM: Bacillus Subtilis; Bacillus subtilis | Escherichia Coli; Escherichia coli | Pseudomonas Fluorescens; Pseudomonas fluorescens | Pseudomonas Putida (CP1); Pseudomonas putida | [1]; Pseudomonas putida

COC(=O)C(c1ccc2c(c1)OCO2)[n+]1ccccc1 (centres unmarked) [KG 2015, RS-2-(3,4-methylendioxyphenyl)-2-(pyridinium) methyl acetate, bromide salt]
> 1000 µM: Bacillus Subtilis; B. Subtilis | Escherichia Coli; E. Coli | Pseudomonas Fluorescens; P. Fluorescens | Pseudomonas Putida (CP1); P. Putida (CP1) | [1]; P. Putida (KT2440)
